Experiments:
[1] = tested on: K/BxN serum induced arthritis in C57/BL6 mice; assay: K/BxN serum transfer arthritis, incidence of severe arthritis; type: in vivo; details: K/BxN serum i.p. days 0 and 2; 8 days study period; N=6; drug alone
Experimental: Six week-old C57/BL6 mice were purchased from Charles River and left for one week for acclimatization before starting the experiment.
Arthritis was induced with two i.p. injections of 100 μl K/BxN serum on days 0 and 2 (for details see J Immunol 2015; 194:3381-3388).
Methotrexate and Veh2 (12.5% carbonate) were administered on days 3, 5 and 7 by i.p. injection (injected volume: 200 μl).
Preparation of methotrexate formulation: A small volume of 0.1M carbonate-bicarbonate buffer pH=9.6 was used to dissolve methotrexate (Sigma Cat no: A6770). Then, PBS was used to reach the desired concentration. […] Diluted compound was divided in single-use aliquots and stored at −20° C. until use.
The development of arthritis was monitored daily from day 0 to day 8.
Mice were sacrificed on day 8 after recording the daily measurements.
Visible signs of arthritis were assessed using the scoring method as described in Am J Pathol, 2014; 184(8):2333-41 consisting on assigning a score of 0-3 per paw, reaching a maximum of 12 per mouse: • Score 0: no signs of inflammation. • Score 1: subtle inflammation, localized. • Score 2: easily identified but localized. • Score 3: evident inflammation, not localized. […]
The incidence of severe arthritis was calculated as the % of mice in each group that reached a total score of 10.

[2] = Phase I Part I: single ascending oral dose pharmacokinetics (oral suspension); type: in vivo, human (healthy volunteers)
Experimental: FIG. 2: Plasma concentration following single oral dosing of test compound in healthy volunteers. […] Dose levels of test compound: 100, 200, 400, 600 or 800 mg. Consecutive plasma samples were collected and concentration in plasma determined by LCMS-MS. N=6 per dose level. Mean per group.

[3] = Phase I Part II: comparative bioavailability tablet vs. oral suspension; type: in vivo, human (healthy volunteers); details: 200 mg as two 100 mg tablets vs. 200 mg oral suspension, three-way cross-over
[4] = Phase I Part III: 14-day repeated dose pharmacokinetics, tablets; type: in vivo, human (healthy volunteers); details: tablets 100 mg daily (Group 1)
From the text: (§1) Fourteen days repeated dosing was initiated using a tablet formulation (Part III) and was completed (Part IV) using the suspension for oral administration.
A total of 111 subjects were randomized; 104 young healthy male volunteers and eight (8) post-menopausal women.

[5] = Phase I Part IV: 14-day repeated dose pharmacokinetics, oral suspension; type: in vivo, human (healthy volunteers)
Experimental: FIG. 3: Plasma concentration following repeated oral dosing of test compound in healthy volunteers. […] Dose levels of test compound 1: 50, 100, 200 mg. Consecutive plasma samples were collected following the last day of dosing (day 14) and concentration in plasma determined by LCMS-MS. N=9 per dose level. Mean+/−SD per group.

[6] = tested on: MC1R; details: cited from earlier work
[7] = tested on: MC3R; details: induces ERK1/2-phosphorylation and Ca2+ mobilization; cited from earlier work
[8] = target: MC1R (Homo sapiens, UniProt Q01726); details: WO 2007/141343; cited from earlier work
MC1R (Homo sapiens, UniProt Q01726), sequence (Q01726 whole entry, species assumed): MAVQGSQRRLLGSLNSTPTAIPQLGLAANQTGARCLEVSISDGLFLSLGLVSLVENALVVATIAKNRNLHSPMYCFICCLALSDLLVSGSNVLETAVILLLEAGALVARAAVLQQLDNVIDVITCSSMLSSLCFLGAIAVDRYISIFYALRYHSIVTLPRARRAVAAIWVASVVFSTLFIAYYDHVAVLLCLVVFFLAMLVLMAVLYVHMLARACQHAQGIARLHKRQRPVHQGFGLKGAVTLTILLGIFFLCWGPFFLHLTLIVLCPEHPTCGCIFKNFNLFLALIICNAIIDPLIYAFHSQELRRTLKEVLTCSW

[9] = Phase I Part I: single ascending oral dose safety
From the text: as §1
The two first male groups were composed of 3 subjects receiving active and one subject placebo; the other groups consisted of 6 subjects receiving active IMP and two subjects receiving placebo. Forty-eight (48) healthy male volunteers aged 19 to 39 years and eight (8) healthy postmenopausal female volunteers, aged 47 to 60 years were included.

[10] = Phase I Part IV: 14-day repeated dose safety, oral suspension
Experimental: A Part IV was added to the study that was identical to Study Part III but conducted with the oral suspension in fasting conditions.
The dose levels tested were 50 mg, 100 mg or 200 mg with matching placebo (See FIG. 3).

[11] = female post-menopausal subjects, single 400 mg oral suspension
[12] = 50, 100 or 200 mg once daily for 14 days

## CC(=O)O.N=C(N)N/N=C/C=C/c1cccn1-c1ccccc1[N+](=O)[O-] [AP1189]
[1]
  incidence of severe arthritis (% of mice in each group that reached a total score of 10): 50%
[2]; [11]
  Cmax and AUCs compared to male subjects: slightly increased
  apparent clearance: 17.26 L/h
  apparent volume of distribution compared to male subjects: similar
[2]; male subjects, single oral suspension, dose range 50-800 mg, fasting
  inter-individual variability for Cmax and AUCs: < 36%
[2]; single oral dose, MAD
  exposure at the maximum administrated dose (MAD) above expected exposure level for therapeutic efficacy: more than 10 ×
[3]
  exposure of tablet compared to oral suspension: lower exposure with higher variability
[4]
  bioavailability within and between subjects: high and unpredicted degree of bioavailability both within and between subjects
  exposure judged on Cmax, span: from below the limit of quantification (BLQ) up to levels expected to be more than three times the exposure expected to induce therapeutic effects
[5]; 50 mg once daily oral suspension
  day steady state achieved: 7 days
[5]; 100 mg once daily oral suspension
  peak increase compared to cohort 1 (50 mg): approximately 2 fold
[5]; male, human, plasma, oral, 200 mg once daily, steady conditions, read-out: C Max (mean +/− SD, N = 9)
  Cmax: 893 ± 198 ng/mL
[6]; induces ERK1/2-phosphorylation and Ca2+ mobilization
  activity at receptor MC1R: biased dual agonist
[6]; receptors MC1R and MC3R, hence no MC1R-induced melanogenesis
  canonical cAMP generation: does not provoke canonical cAMP generation
[7]
  activity at receptor MC3R: biased dual agonist
[8]
  binding to MC1R: shown to bind the MC1R
[9]; continuous 24-hours 1000 HZ Holter ECG recording, single dose
  QTcF and other cardiac parameters: No AP1189 associated increases in QTcF
[9]; male subjects, single dose 400, 600 or 800 mg
  increase in aminotransferases, above the normal upper value of ALT: up to 1.6
[9]; male subjects, single dose (1 at 400 mg, 2 at 600 mg, 1 at 800 mg)
  subjects with isolated increases in aminotransferases: 4 subjects
[9]; single oral dose 15-800 mg
  severe AEs / serious AEs: No severe AEs nor serious AEs
  treatment-related changes in vital signs: No treatment-related changes in vital signs
[9]; single oral dose up to 800 mg
  maximum tolerated dose (MTD): not reached
[10]; [12]
  QTcF in repeated standard 12 lead safety ECG: No individual QTcF clinically significant values
  severe AEs / serious AEs: No severe AEs nor serious AEs
[10]; Cohort 3, 200 mg once daily for 14 days
  subjects treated with active with isolated increases in aminotransferases: 3 subjects
[10]; once daily for 14 days, 2 at 50 mg, 2 at 200 mg, gastrointestinal disorders
  TEAEs considered possibly related to the study treatment: 4 events
[10]; up to 200 mg once daily for 14 days
  MTD: not reached

## CN(Cc1cnc2nc(N)nc(N)c2n1)c1ccc(C(=O)N[C@@H](CCC(=O)O)C(=O)O)cc1 [methotrexate, reference compound]
[1]
  incidence of severe arthritis (% of mice in each group that reached a total score of 10): 50%
